Test results reported in ChEMBL document CHEMBL1131491, “Comparative binding energy analysis of HIV-1 protease inhibitors: incorporation of solvent effects and validation as a powerful tool in receptor-based drug design” (J Med Chem, 1998).

Target: Human immunodeficiency virus type 1 protease (Human immunodeficiency virus 1, UniProt Q72874)
Test: Inhibitory activity against HIV-1 protease.

IC50 [nM] | SMILES
562 | CC(C)(C)OC(=O)N[C@@H](Cc1ccccc1)[C@@H](O)CC(=O)N[C@H]1c2ccccc2C[C@H]1O
7.59 | CC(C)(C)NC(=O)[C@@H]1C[C@@H]2CCCC[C@@H]2CN1C[C@@H](O)C[C@@H](Cc1ccccc1)C(=O)N[C@H]1c2ccccc2CC1O (some centres not stated)
3020 | CC(C)(C)NC(=O)[C@@H]1C[C@@H]2CCCC[C@@H]2CN1C[C@@H](O)[C@H](Cc1ccccc1)NC(=O)OC(C)(C)C

The remaining lines, values behind:

SMILES | IC50 [nM]
CC(C)(C)OC(=O)N[C@@H](Cc1ccccc1)[C@@H](O)C[C@@H](Cc1ccccc1)C(=O)N[C@H]1c2ccccc2OC[C@H]1O | 0.178
CC(C)(C)OC(=O)N[C@@H](Cc1ccccc1)[C@@H](O)C[C@@H](Cc1ccccc1)C(=O)N[C@H]1C=CC[C@H]1O | 9.55
C[C@@H](NC(=O)[C@H](Cc1ccccc1)C[C@H](O)[C@H](Cc1ccccc1)NC(=O)OC(C)(C)C)c1ccccc1 | 145
CC(C)(C)OC(=O)N[C@@H](Cc1ccccc1)[C@@H](O)C[C@@H](Cc1ccccc1)C(=O)N[C@H]1c2ccccc2CC[C@H]1O | 0.692
